Results: ChEMBL document CHEMBL6153138, “Discovery of Novel Aromatic Urea-Imidazole Salt Derivatives for Cancer Therapy via Targeting ERK1/2” (J Med Chem, 2025)
Active and inactive are the calls of the source. The calls are words filed in the database; no cut-off is given here.

Legend:
4T1 [1] = experiment: Antitumor activity against mouse 4T1 cells implanted in female BALB/c mouse model assessed as reduction in PCNA expression at 50 mg/kg, po in presence of chloroquine by immunohistochemical analysis; assay type: functional, organism-based
[2] = Toxicity in female BALB/c mouse assessed as effect on tumor at 25 to 50 mg/kg, po qd measured after 18 days by H and E staining based analysis; assay type: organism-based; settings: in vivo, 432 h, dose 25-50 mg/kg, time 18 day
[3] = Toxicity in female BALB/c mouse assessed as change in body weight at 50 mg/kg, po qd measured after 18 days in presence of chloroquine; assay type: organism-based; settings: in vivo, 432 h, time 18 day
[4] = target: Vascular endothelial growth factor receptor 1 (Homo sapiens) (UniProt P17948); experiment: Inhibition of human FLT1 at 10000 nM by DiscoverX KINOMEscan assay relative to control
Vascular endothelial growth factor receptor 1 (Homo sapiens), sequence (P17948 whole entry): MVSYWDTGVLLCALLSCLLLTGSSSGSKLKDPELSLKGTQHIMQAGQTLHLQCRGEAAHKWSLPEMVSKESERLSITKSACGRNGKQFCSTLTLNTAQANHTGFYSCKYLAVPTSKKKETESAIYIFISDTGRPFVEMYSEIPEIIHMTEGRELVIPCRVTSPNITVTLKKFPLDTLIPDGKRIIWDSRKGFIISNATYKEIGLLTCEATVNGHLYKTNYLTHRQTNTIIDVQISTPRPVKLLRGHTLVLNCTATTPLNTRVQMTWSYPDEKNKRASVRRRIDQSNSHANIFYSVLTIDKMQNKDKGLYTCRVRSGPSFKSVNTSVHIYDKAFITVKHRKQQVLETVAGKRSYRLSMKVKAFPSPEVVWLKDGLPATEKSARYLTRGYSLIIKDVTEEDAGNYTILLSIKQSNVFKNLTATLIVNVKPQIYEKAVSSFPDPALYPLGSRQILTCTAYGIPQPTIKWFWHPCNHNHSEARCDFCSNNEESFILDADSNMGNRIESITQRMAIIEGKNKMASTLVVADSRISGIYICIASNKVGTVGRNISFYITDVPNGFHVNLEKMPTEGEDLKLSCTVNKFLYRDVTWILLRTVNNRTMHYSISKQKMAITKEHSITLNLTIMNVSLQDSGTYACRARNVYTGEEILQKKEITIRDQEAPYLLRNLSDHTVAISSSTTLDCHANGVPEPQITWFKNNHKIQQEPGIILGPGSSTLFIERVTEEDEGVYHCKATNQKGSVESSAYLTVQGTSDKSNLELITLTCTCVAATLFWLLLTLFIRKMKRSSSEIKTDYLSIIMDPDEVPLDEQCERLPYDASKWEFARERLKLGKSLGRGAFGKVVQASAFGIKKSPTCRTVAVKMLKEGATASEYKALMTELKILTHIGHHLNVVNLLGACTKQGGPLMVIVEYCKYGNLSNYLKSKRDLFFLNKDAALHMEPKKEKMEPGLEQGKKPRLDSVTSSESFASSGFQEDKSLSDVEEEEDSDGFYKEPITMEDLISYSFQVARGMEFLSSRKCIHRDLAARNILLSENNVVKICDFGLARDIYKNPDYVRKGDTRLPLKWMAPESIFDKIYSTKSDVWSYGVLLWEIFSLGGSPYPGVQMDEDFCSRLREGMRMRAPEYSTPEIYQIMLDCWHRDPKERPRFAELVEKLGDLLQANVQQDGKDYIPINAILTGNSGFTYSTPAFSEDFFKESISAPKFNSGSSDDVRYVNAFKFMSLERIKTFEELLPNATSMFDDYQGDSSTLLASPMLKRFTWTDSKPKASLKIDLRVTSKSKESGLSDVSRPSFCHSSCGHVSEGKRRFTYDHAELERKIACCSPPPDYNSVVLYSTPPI

MCF7 [5] = experiment: Induction of autophagy in human MCF7 cells assessed as upregulation of LC3B-II expression incubated for 48 hrs by Western blotting analysis; assay type: functional, cell-based; settings: dose 0.5-2 µM
MDA-MB-468 = experiment: Antiproliferative activity against human MDA-MB-468 cells incubated for 48 hrs by CCK-8 method; assay type: functional, cell-based; settings: MDA-MB-468, 48 h
[6] = Toxicity in female BALB/c mouse assessed as effect on lung at 25 to 50 mg/kg, po qd measured after 18 days by H and E staining based analysis; assay type: organism-based; settings: in vivo, 432 h, dose 25-50 mg/kg, time 18 day
MCF7 [7] = experiment: Induction of autophagic flux in human MCF7 cells assessed as colocalization of LAMP1 at 1 uM incubated for 48 hrs in presence of chloroquine by immunofluorescence analysis; assay type: functional, cell-based
MCF7 [8] = experiment: Upregulation of caspase3 protein expression in human MCF-7 cells at 1 uM incubated for 6 hrs in presence of 3-methyladenine by Western blot analysis; assay type: functional, cell-based
MCF7 [9] = experiment: Induction of autophagic flux in human MCF7 cells assessed as decrease in p62 protein level at 0.5 to 2 uM incubated for 48 hrs by Western blotting analysis; assay type: functional, cell-based; settings: dose 0.5-2 µM
Mitochondrial membrane [10] = experiment: Induction of mitochondrial membrane potential loss in human MCF7 cells assessed as increase in JC-1 monomers by measuring increase in green fluorescence at 0.5 uM by flow cytometry analysis (reference value: 38.0%); assay type: cell membranes
[11] = target: T1, Mitogen-activated protein kinase 1 (Homo sapiens, UniProt P28482); experiment: Induction of thermal stabilization of ERK2 (unknown origin) at 10 uM by differential scanning fluorimetry analysis
T1 sequence (P28482 whole entry): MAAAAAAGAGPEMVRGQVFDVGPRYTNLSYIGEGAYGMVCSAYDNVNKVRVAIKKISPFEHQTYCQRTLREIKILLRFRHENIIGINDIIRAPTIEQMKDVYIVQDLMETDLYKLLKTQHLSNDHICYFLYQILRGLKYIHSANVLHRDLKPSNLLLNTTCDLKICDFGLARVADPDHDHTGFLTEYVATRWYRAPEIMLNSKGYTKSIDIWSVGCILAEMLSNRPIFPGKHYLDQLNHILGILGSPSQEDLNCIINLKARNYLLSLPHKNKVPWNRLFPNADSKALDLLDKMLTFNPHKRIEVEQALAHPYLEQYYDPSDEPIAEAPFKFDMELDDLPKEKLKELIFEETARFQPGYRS

MCF7 [12] = experiment: Induction of autophagy in human MCF7 cells assessed as increase in MDC positive cells at 0.5 to 2 uM by MDC staining based microscopic analysis; assay type: functional, cell-based; settings: dose 0.5-2 µM
[13] = Toxicity in female BALB/c mouse assessed as change in body weight at 25 to 50 mg/kg, po qd measured after 18 days; assay type: organism-based; settings: in vivo, 432 h, dose 25-50 mg/kg, time 18 day
Mitochondrial membrane [14] = experiment: Induction of mitochondrial membrane potential loss in human MCF7 cells assessed as reduction in JC-1 aggregates by measuring decrease in red fluorescence at 2 uM by flow cytometry analysis (reference value: 24.7%); assay type: cell membranes; parameters: scale not given: the % may be the effect or the level left
MCF7 [15] = experiment: Downregulation of N-cadherin expression in human MCF7 cells at 0.5 to 2 uM; assay type: functional, cell-based; settings: dose 0.5-2 µM
MCF7 [16] = experiment: Induction of apoptosis in human MCF7 cells assessed as late apoptotic cells at 1 uM incubated for 48 hrs in presence of chloroquine by Annexin V/FITC and PI staining based flow cytometry analysis (reference value: 4.90%); assay type: functional
MCF-10A = experiment: Antiproliferative activity against human MCF-10A cells incubated for 48 hrs by CCK-8 method; assay type: functional, cell-based
[17] = target: T1, Mitogen-activated protein kinase 1; experiment: Inhibition of ERK2 (unknown origin) incubated for 60 mins by luminescence based ADP-Glo kinase assay
MCF7 [18] = experiment: Upregulation of caspase3 protein expression in human MCF-7 cells at 1 uM incubated for 6 hrs in presence of chloroquine by Western blot analysis; assay type: functional, cell-based
MCF7 [19] = experiment: Antiproliferative activity against human MCF7 cells incubated for 48 hrs by CCK-8 method; assay type: functional, cell-based; settings: MCF7, 48 h
MCF7 [20] = experiment: Upregulation of E-cadherin expression in human MCF7 cells at 0.5 to 2 uM; assay type: functional, cell-based; settings: dose 0.5-2 µM
MCF7 [21] = experiment: Induction of apoptosis in human MCF7 cells assessed as late apoptotic cells at 1 uM incubated for 48 hrs by Annexin V/FITC and PI staining based flow cytometry analysis (reference value: 2.5%); assay type: functional
MCF7 [22] = experiment: Inhibition of colony formation in human MCF7 cells at 1 uM incubated for 6 hrs in presence of chloroquine by crystal violet staining based analysis; assay type: functional, cell-based
4T1 [23] = experiment: Antitumor activity against mouse 4T1 cells implanted in female BALB/c mouse model assessed as reduction in Ki67 expression at 50 mg/kg, po in presence of chloroquine by immunohistochemical analysis; assay type: functional, organism-based
[24] = Apparent volume of distribution in Sprague-Dawley rat at 1 mg/kg, iv by LC-MS/MS analysis; assay type: ADME, organism-based; settings: in vivo, read-out: Vz
Mitochondrial membrane [25] = experiment: Induction of mitochondrial membrane potential loss in human MCF7 cells assessed as increase in JC-1 monomers by measuring increase in green fluorescence at 1 uM by flow cytometry analysis (reference value: 38.0%); assay type: cell membranes
[26] = Toxicity in female BALB/c mouse assessed as effect GLU level in serum at 25 to 50 mg/kg, po qd measured after 18 days by biochemical analysis; assay type: organism-based; settings: in vivo, 432 h, dose 25-50 mg/kg, time 18 day
[27] = target: Macrophage colony-stimulating factor 1 receptor (Homo sapiens) (UniProt P07333); experiment: Inhibition of human FMS at 10000 nM by DiscoverX KINOMEscan assay relative to control
Macrophage colony-stimulating factor 1 receptor (Homo sapiens), sequence (P07333 whole entry): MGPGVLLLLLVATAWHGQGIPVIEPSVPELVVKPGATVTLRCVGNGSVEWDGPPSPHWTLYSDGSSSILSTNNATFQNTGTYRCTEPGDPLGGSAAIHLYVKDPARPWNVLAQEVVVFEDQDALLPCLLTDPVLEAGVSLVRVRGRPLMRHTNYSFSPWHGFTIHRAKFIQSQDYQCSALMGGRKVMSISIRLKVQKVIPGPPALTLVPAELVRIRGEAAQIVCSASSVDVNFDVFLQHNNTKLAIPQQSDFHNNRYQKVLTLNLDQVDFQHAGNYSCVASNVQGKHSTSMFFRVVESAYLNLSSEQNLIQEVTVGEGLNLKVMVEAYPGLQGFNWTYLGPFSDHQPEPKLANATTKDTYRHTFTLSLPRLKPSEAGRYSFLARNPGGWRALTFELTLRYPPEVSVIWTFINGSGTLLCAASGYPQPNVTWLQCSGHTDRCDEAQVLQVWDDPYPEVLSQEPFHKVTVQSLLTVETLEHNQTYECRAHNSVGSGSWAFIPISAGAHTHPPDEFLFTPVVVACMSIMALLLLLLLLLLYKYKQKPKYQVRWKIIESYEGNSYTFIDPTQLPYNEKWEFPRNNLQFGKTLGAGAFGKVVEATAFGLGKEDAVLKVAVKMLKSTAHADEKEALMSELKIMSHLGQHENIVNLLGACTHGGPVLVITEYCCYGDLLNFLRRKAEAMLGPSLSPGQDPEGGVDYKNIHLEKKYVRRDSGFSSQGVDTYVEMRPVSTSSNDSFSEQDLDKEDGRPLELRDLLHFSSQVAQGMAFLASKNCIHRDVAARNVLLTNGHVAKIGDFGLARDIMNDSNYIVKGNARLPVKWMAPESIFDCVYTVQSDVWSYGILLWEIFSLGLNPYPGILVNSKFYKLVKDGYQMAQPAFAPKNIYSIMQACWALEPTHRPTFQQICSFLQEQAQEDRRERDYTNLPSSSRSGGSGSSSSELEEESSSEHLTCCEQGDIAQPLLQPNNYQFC

MCF7 [28] = experiment: Induction of autophagy in human MCF7 cells assessed as increase in LC3B expression at 1 uM incubated for 48 hrs in presence of 3-methyladenine by Western blot analysis; assay type: functional, cell-based
MCF7 [29] = experiment: Induction of autophagy in human MCF7 cells assessed as increase in acidic vesicular organelles at 0.5 to 2 uM by Acridine orange staining based analysis; assay type: functional, cell-based; settings: dose 0.5-2 µM
HCC1937 = experiment: Antiproliferative activity against human HCC1937 cells incubated for 48 hrs by CCK-8 method; assay type: functional, cell-based; settings: HCC1937, 48 h
[30] = AUC (0 to infinity) in Sprague-Dawley rat at 10 mg/kg, po by LC-MS/MS analysis; assay type: ADME, organism-based; settings: in vivo
[31] = target: Mitogen-activated protein kinase 3 (Homo sapiens, UniProt P27361); experiment: Induction of thermal stabilization of ERK1 (unknown origin) at 10 uM by differential scanning fluorimetry analysis
Mitogen-activated protein kinase 3, sequence (P27361 whole entry): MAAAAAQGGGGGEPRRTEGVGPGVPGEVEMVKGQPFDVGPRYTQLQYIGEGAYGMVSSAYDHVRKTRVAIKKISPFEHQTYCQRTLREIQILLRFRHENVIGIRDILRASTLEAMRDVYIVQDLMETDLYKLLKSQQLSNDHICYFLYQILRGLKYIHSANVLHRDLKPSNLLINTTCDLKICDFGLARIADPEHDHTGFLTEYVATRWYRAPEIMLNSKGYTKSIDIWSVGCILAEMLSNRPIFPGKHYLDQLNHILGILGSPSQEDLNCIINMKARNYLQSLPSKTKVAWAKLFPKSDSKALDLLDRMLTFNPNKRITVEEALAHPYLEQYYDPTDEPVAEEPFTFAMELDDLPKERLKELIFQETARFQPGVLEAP

4T1 [32] = experiment: Antitumor activity against mouse 4T1 cells implanted in female BALB/c mouse model assessed as increase in ERK1/2 phosphorylation at 50 mg/kg, po qd measured from 12 to 24 hrs by immunohistochemical analysis; assay type: functional, organism-based; settings: time 12-24 hrs

inhibition [4]: 19% | IC50 (MDA-MB-468): 2150 nM | Activity (Mitochondrial membrane [10]): 46.6% | Activity [11]: Active | Activity (Mitochondrial membrane [14]): 5.4% | IC50 [17]: 97.9 nM | IC50 (MCF7 [19]): 670 nM | Vd [24]: 4.41 L/kg | Activity (Mitochondrial membrane [25]): 48.9% | inhibition [27]: 19% | IC50 (HCC1937): 1680 nM | AUC(0-inf) [30]: 4080 ng·h/mL | Activity [31]: Active
SMILES: O=C(Nc1cc(C(F)(F)F)cc(C(F)(F)F)c1)N[C@@H](Cc1ccccc1)Cn1c[n+](Cc2ccc3ccccc3c2)c2ccccc21.[Br-]
Activity (4T1 [1]): Active | Activity [2]: Non-toxic | Activity [3]: Non-toxic | Activity (MCF7 [5]): Dose-dependent-effect | Activity [6]: Non-toxic | Activity (MCF7 [7]): Active | Activity (MCF7 [8]): Active | Activity (MCF7 [9]): Active | Activity (MCF7 [12]): Active | Activity [13]: Non-toxic | Activity (MCF7 [15]): Active | Activity (MCF7 [16]): 26.9% | IC50 (MCF-10A): > 10000 nM | Activity (MCF7 [18]): Active | Activity (MCF7 [20]): Active | Activity (MCF7 [21]): 9.6% | inhibition (MCF7 [22]): Active | Activity (4T1 [23]): Active | Activity [26]: Non-toxic | Activity (MCF7 [28]): inactive | Activity (MCF7 [29]): Active | Activity (4T1 [32]): inactive
